Results on five compounds are retold here after BindingDB's records for doi:10.1016/j.ejmech.2019.04.053 (China Pharmaceutical University, 2019).

A short description of this assay: Inhibition of human TRKA expressed in human TF1 cells by CellTiter-Glo Luminescent assay.
In the case of `COCC[C@@H]1C[C@@H](NC(=O)Nc2c(C)c(-c3cnn(C)c3)nn2-c2ccccc2)[C@H](c2cnc(Cl)c(F)c2)N1`, the IC50 is less than 100 nM.
`COCC[C@@H]1C[C@@H](NC(=O)Nc2c(C)c(-c3cnc4c(c3)c(N=S(C)(C)=O)nn4C)nn2-c2ccccc2)[C@H](c2ccc(F)c(F)c2)N1` registered an IC50 of less than 100 nM.
As to `COCCN1C[C@@H](NC(=O)Nc2c(C)c(-c3cnn(C)c3)nn2-c2ccccc2)[C@@H]2c3ccccc3CC[C@H]21`, the IC50 stood at 0.59 nM.
In turn, `Cc1c(OCC2CCN(C)CC2)nn(-c2ccccc2)c1NC(=O)N[C@H]1CN(CC(F)(F)F)[C@@H]2COc3ccccc3[C@H]12` showed an IC50 of 0.64 nM.
As to `COCC[C@@H]1C[C@@H](NC(=O)Nc2c(C)c(-c3cnn(C)c3)nn2-c2ccccc2)[C@@H]2c3ccccc3C(F)(F)CN12`, the IC50 was found to be 0.64 nM.

By IC50 is commonly meant the point on the concentration scale where inhibition reaches its midpoint.
